Test results from US20240376099A1, “COMPOUNDS AND COMPOSITIONS AS INHIBITORS OF ENDOSOMAL TOLL-LIKE RECEPTORS” (Novartis AG, priority 2016, published 2024).
pIC50: −log10 of the molar value.

molecular target: T1, TLR9 (Homo sapiens, UniProt Q9NR96); experiment: huPBMC TLR9 Antagonist IFNα Assay; type: cell-based; conditions: human PBMCs stimulated with ODN2216 0.3 μM, 14-16 hrs; IFNα2b AlphaLISA read-out
T1 construct: Fresh blood was collected from normal human donors; endogenous in cells; host or cells: human PBMCs from fresh donor blood
T1 sequence (Q9NR96 26-1032): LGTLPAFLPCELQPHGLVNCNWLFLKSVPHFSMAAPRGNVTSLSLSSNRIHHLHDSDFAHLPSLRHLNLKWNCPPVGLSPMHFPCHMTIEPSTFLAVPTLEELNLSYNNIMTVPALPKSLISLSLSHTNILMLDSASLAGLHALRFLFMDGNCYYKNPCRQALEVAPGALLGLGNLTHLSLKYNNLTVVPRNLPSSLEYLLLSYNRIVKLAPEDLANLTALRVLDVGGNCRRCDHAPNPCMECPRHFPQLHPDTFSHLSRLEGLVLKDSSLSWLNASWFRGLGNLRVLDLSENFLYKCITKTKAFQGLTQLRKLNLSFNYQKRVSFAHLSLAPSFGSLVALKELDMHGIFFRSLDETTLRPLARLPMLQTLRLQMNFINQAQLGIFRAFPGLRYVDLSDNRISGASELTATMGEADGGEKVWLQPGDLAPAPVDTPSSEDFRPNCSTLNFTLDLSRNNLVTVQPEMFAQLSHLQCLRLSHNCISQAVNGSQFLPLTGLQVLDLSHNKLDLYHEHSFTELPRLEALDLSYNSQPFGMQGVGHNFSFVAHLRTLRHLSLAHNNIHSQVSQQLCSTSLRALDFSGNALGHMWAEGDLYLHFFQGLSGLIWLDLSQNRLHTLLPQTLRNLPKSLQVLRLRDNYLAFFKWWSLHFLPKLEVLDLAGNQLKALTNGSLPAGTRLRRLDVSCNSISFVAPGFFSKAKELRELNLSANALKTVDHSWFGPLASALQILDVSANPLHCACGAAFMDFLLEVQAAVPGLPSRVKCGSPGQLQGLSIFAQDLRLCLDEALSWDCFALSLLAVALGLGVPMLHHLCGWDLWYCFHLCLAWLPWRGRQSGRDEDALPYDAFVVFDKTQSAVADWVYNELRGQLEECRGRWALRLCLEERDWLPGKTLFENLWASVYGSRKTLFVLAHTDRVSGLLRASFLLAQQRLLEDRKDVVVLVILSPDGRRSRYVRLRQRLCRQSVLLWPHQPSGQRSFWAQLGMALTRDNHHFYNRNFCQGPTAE
How it was run: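 Human PBMCs from fresh donor blood (150,000 cells/well) stimulated 14–16 h at 37 °C with DOTAP-complexed ssRNA40 (final 1 μg/ml for TLR8, 10 μg/mL for TLR7) or ODN2216 (final 0.3 μM, TLR9), 0.25% DMSO, ten-point 1/3 compound dilutions. Supernatant IL-6 read by HTRF (TLR8); IFNα by IFNα2b AlphaLISA (TLR7/TLR9).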

`Cc1cc(N2CCc3c(c(C)nn3CC34CCC(N)(CC3)CC4)C2)c2cnn(C)c2n1` [Compound No. 1, 4-((5-(1,6-dimethyl-1H-pyrazolo[3,4-b]pyridin-4-yl)-3-methyl-4,5,6,7-tetrahydro-1H-pyrazolo[4,3-c]pyridin-1-yl)methyl)bicyclo[2.2.2]octan-1-amine] was tested. Which pIC50 did it give?
The pIC50 was 5.82.

How did the pIC50 turn out when `Cc1cc(N2CCc3c(c(C)nn3CC34CCC(N)(CC3)CC4)C2)c2cn[nH]c2n1` [Compound No. 2, 4-((3-methyl-5-(6-methyl-1H-pyrazolo[3,4-b]pyridin-4-yl)-4,5,6,7-tetrahydro-1H-pyrazolo[4,3-c]pyridin-1-yl)methyl)bicyclo[2.2.2]octan-1-amine] was run?
Its pIC50 is 5.50.

How did the pIC50 turn out when `Cc1cc(N2CCc3c(c(C)nn3CC34CCC(N(C)C(=O)OC(C)(C)C)(CC3)CC4)C2)c2cnn(C)c2n1` [Compound No. 49, tert-butyl (4-((5-(1,6-dimethyl-1H-pyrazolo[3,4-b]pyridin-4-yl)-3-methyl-4,5,6,7-tetrahydro-1H-pyrazolo[4,3-c]pyridin-1-yl)methyl)bicyclo[2.2.2]octan-1-yl)(methyl)carbamate] was run?
The pIC50 was 5.40.

`CNC12CCC(Cn3nc(C)c4c3CCN(c3cc(C)nc5c3cnn5C)C4)(CC1)CC2` [Compound No. 50, 4-((5-(1,6-dimethyl-1H-pyrazolo[3,4-b]pyridin-4-yl)-3-methyl-4,5,6,7-tetrahydro-1H-pyrazolo[4,3-c]pyridin-1-yl)methyl)-N-methylbicyclo[2.2.2]octan-1-amine] was tested. Which pIC50 did it give?
Its pIC50 is 6.42.

How did the pIC50 turn out when `Cc1cc(N2CCc3c(c(C)nn3CC34CCC(NC(=O)OC5(C)CC5)(CC3)CC4)C2)c2cnn(C)c2n1` [Compound No. 51, 1-methylcyclopropyl (4-((5-(1,6-dimethyl-1H-pyrazolo[3,4-b]pyridin-4-yl)-3-methyl-4,5,6,7-tetrahydro-1H-pyrazolo[4,3-c]pyridin-1-yl)methyl)bicyclo[2.2.2]octan-1-yl)carbamate] was run?
The pIC50 was 5.12.

With `COc1ccc(Cn2ncc3c(N4CCc5c(c(C)nn5CC56CCC(N)(CC5)CC6)C4)cc(C)nc32)cc1` [Compound No. 53, 4-((5-(1-(4-methoxybenzyl)-6-methyl-1H-pyrazolo[3,4-b]pyridin-4-yl)-3-methyl-4,5,6,7-tetrahydro-1H-pyrazolo[4,3-c]pyridin-1-yl)methyl)bicyclo[2.2.2]octan-1-amine] as the molecule, how does the pIC50 read?
Its pIC50 is 5.76.

`Cc1cc(N2CCc3c(c(C)nn3CC34CCC(N5CCCC5)(CC3)CC4)C2)c2cnn(C)c2n1` [Compound No. 58, 5-(1,6-dimethyl-1H-pyrazolo[3,4-b]pyridin-4-yl)-3-methyl-1-((4-(pyrrolidin-1-yl)bicyclo[2.2.2]octan-1-yl)methyl)-4,5,6,7-tetrahydro-1H-pyrazolo[4,3-c]pyridine] was tested. Which pIC50 did it give?
The pIC50 was 6.19.

`Cc1cc(N2CCc3c(c(C)nn3CC34CCC(N5CCOCC5)(CC3)CC4)C2)c2cnn(C)c2n1` [Compound No. 59, 4-(4-((5-(1,6-dimethyl-1H-pyrazolo[3,4-b]pyridin-4-yl)-3-methyl-4,5,6,7-tetrahydro-1H-pyrazolo[4,3-c]pyridin-1-yl)methyl)bicyclo[2.2.2]octan-1-yl)morpholine] was tested. Which pIC50 did it give?
The pIC50 was 5.66.

How did the pIC50 turn out when `COCCNC12CCC(Cn3nc(C)c4c3CCN(c3cc(C)nc5c3cnn5C)C4)(CC1)CC2` [Compound No. 69, 4-((5-(1,6-dimethyl-1H-pyrazolo[3,4-b]pyridin-4-yl)-3-methyl-4,5,6,7-tetrahydro-1H-pyrazolo[4,3-c]pyridin-1-yl)methyl)-N-(2-methoxyethyl)bicyclo[2.2.2]octan-1-amine] was run?
Its pIC50 is 6.35.

How did the pIC50 turn out when `Cc1cc(N2CCc3c(c(C)nn3CC34CCC(N(C)C5COC5)(CC3)CC4)C2)c2cnn(C)c2n1` [Compound No. 77, N-(4-((5-(1,6-dimethyl-1H-pyrazolo[3,4-b]pyridin-4-yl)-3-methyl-4,5,6,7-tetrahydro-1H-pyrazolo[4,3-c]pyridin-1-yl)methyl)bicyclo[2.2.2]octan-1-yl)-N-methyloxetan-3-amine] was run?
Its pIC50 is 6.75.

`Cc1nn(CC23CCC(N)(CC2)CC3)c2c1CN(c1ccnc(-c3ccc(C#N)cc3)c1)CC2` [Compound No. 84, 4-(4-(1-((4-aminobicyclo[2.2.2]octan-1-yl)methyl)-3-methyl-6,7-dihydro-1H-pyrazolo[4,3-c]pyridin-5(4H)-yl)pyridin-2-yl)benzonitrile] was tested. Which pIC50 did it give?
Its pIC50 is 5.74.

How did the pIC50 turn out when `Cc1cc(N2CCc3c(c(C)nn3CC34CCC(O)(CC3)CC4)C2)c2cnn(C)c2n1` [compound 46, 4-((5-(1,6-dimethyl-1H-pyrazolo[3,4-b]pyridin-4-yl)-3-methyl-4,5,6,7-tetrahydro-1H-pyrazolo[4,3-c]pyridin-1-yl)methyl)bicyclo[2.2.2]octan-1-ol] was run?
The pIC50 was < 5.00.

How did the pIC50 turn out when `Cc1cc(N2CCc3nn(CC45CC(N)(C4)C5)c(C)c3C2)c2cnn(C)c2n1` [compound 52, 3-((5-(1,6-dimethyl-1H-pyrazolo[3,4-b]pyridin-4-yl)-3-methyl-4,5,6,7-tetrahydro-2H-pyrazolo[4,3-c]pyridin-2-yl)methyl)bicyclo[1.1.1]pentan-1-amine] was run?
Its pIC50 is 5.31.

With `Cc1cc(N2CCc3c(c(C)nn3CC34CCC(NC5CCC5)(CC3)CC4)C2)c2cnn(C)c2n1` [compound 54, N-cyclobutyl-4-((5-(1,6-dimethyl-1H-pyrazolo[3,4-b]pyridin-4-yl)-3-methyl-4,5,6,7-tetrahydro-1H-pyrazolo[4,3-c]pyridin-1-yl)methyl)bicyclo[2.2.2]octan-1-amine] as the molecule, how does the pIC50 read?
The pIC50 was 6.31.

With `Cc1cc(N2CCc3c(c(C)nn3CC34CCC(NC(C)C)(CC3)CC4)C2)c2cnn(C)c2n1` [compound 55, 4-((5-(1,6-dimethyl-1H-pyrazolo[3,4-b]pyridin-4-yl)-3-methyl-4,5,6,7-tetrahydro-1H-pyrazolo[4,3-c]pyridin-1-yl)methyl)-N-isopropylbicyclo[2.2.]octan-1-amine] as the molecule, how does the pIC50 read?
Its pIC50 is 5.98.

How did the pIC50 turn out when `Cc1cc(N2CCc3c(c(C)nn3CC34CCC(NC(C)CO)(CC3)CC4)C2)c2cnn(C)c2n1` (stereo not drawn) [compound 56, 2-((4-((5-(1,6-dimethyl-1H-pyrazolo[3,4-b]pyridin-4-yl)-3-methyl-4,5,6,7-tetrahydro-1H-pyrazolo[4,3-c]pyridin-1-yl)methyl)bicyclo[2.2.2]octan-1-yl)amino)propan-1-ol] was run?
The pIC50 was 6.17.

`CCNC12CCC(Cn3nc(C)c4c3CCN(c3cc(C)nc5c3cnn5C)C4)(CC1)CC2` [compound 57, 4-((5-(1,6-dimethyl-1H-pyrazolo[3,4-b]pyridin-4-yl)-3-methyl-4,5,6,7-tetrahydro-1H-pyrazolo[4,3-c]pyridin-1-yl)methyl)-N-ethylbicyclo[2.2.]octan-1-amine] was tested. Which pIC50 did it give?
Its pIC50 is 6.30.

With `Cc1cc(N2CCc3c(c(C)nn3CC34CCC(N5CCC5)(CC3)CC4)C2)c2cnn(C)c2n1` [compound 64, 1-((4-(azetidin-1-yl)bicyclo[2.2.2]octan-1-yl)methyl)-5-(1,6-dimethyl-1H-pyrazolo[3,4-b]pyridin-4-yl)-3-methyl-4,5,6,7-tetrahydro-1H-pyrazolo[4,3-c]pyridine] as the molecule, how does the pIC50 read?
The pIC50 was 6.35.

`CCOCCNC12CCC(Cn3nc(C)c4c3CCN(c3cc(C)nc5c3cnn5C)C4)(CC1)CC2` [compound 71, 4-((5-(1,6-dimethyl-1H-pyrazolo[3,4-b]pyridin-4-yl)-3-methyl-4,5,6,7-tetrahydro-1H-pyrazolo[4,3-c]pyridin-1-yl)methyl)-N-(2-ethoxyethyl)bicyclo[2.2.2]octan-1-amine] was tested. Which pIC50 did it give?
The pIC50 was 6.31.

With `CCOCCN(CCOCC)C12CCC(Cn3nc(C)c4c3CCN(c3cc(C)nc5c3cnn5C)C4)(CC1)CC2` [compound 72, 4-((5-(1,6-dimethyl-1H-pyrazolo[3,4-b]pyridin-4-yl)-3-methyl-4,5,6,7-tetrahydro-1H-pyrazolo[4,3-c]pyridin-1-yl)methyl)-N,N-bis(2-ethoxyethyl)bicyclo[2.2.2]octan-1-amine] as the molecule, how does the pIC50 read?
Its pIC50 is 6.09.

`Cc1cc(N2CCc3c(c(C)nn3CC34CCC(N5C[C@@H](O)[C@@H](O)C5)(CC3)CC4)C2)c2cnn(C)c2n1` [compound 74, (3S,4R)-1-(4-((5-(1,6-dimethyl-1H-pyrazolo[3,4-b]pyridin-4-yl)-3-methyl-4,5,6,7-tetrahydro-1H-pyrazolo[4,3-c]pyridin-1-yl)methyl)bicyclo[2.2.2]octan-1-yl)pyrrolidine-3,4-diol] was tested. Which pIC50 did it give?
The pIC50 was 5.81.
